Measured values from patent US20230090255A1, “MAGL INHIBITOR, PREPARATION METHOD THEREFOR AND USE THEREOF” (LUNAN PHARMACEUTICAL GROUP CORPORATION, priority 2019, published 2023).
Marks after values point to notes of the source that are not given here.

Experiments:
[1] = tested on: irritable bowel syndrome rats; test: Irritable bowel syndrome rats induced by early maternal separation; type: in vivo, SD rats; parameters: AWR scoring: scale not given here; conditions: for Colon 5-HT / Serum 5-HT / AWR scoring: IBS rats; for 5-HT level in colon and serum, in words / AWR scoring, in words: compared with the model group
Experimental: The newborn SD male rats were separated from the mother rat in lactation period for 3 h every day on the 2nd to the 21st day after the birth of the newborn SD rats, namely, the mother rat in lactation period was taken out of the cage at 8:30 a.m., and then the newborn rats were removed from the initial cage and put to another separate cage, then the cage was transferred to an adjacent room, then the newborn rats were returned to the initial cage 3 h later, namely, at 11:30 such that the newborn rats and the mother rat got together; the newborn rats were weaned on the 22nd day after birth and separated from the initial cage on the 30th day, grouped on the 60th day, and administered, 20 d in total.
Intragastric administration was performed within the administration period once a day with continuous administration for 20 d.
Test indicators: abdominal withdrawal reflex (AWR); test method: rats were fasted 18 h before the experiment and drank water freely, and narcotized with diethyl ether; then an air sac coated with paraffin oil was inserted into the rats’ colorectum for 4.0 cm, and a catheter outside the anus was fixed at the root of the rat tail with an adhesive tape, and connected with an injection syringe and a sphygmomanometer via three links. The rats were put to an organic glass inspection box (20 cmx12 cm×9 cm), after the rats were awake and fully adapted to the environment for 30 min, the experiment was started. 20, 40 and 60 mm Hg of pressure were respectively applied on the rats, and continuous expansion was performed for 20 s each time with a stimulus interval of 4 min; each pressure was performed for 3 times repeatedly for AWR scoring.
At the end of the experiment, the animals were dissected and weighed, and narcotized to take blood, then the content of 5-HT in serum was determined by high performance liquid chromatography. […] slightly with 0.5% sodium carboxymethylcellulose, and then sucked dry with a filter paper, and placed into a cryogenic tube, and preserved at -20° C. for further use, […] chromatography.

[2] = tested on: mice writhing caused by acetic acid; test: Mice writhing caused by acetic acid; conditions: for Writhing times: 1 h before 0.7% acetic acid ip, within 20 min; for Latent time: time to first writhing; for latent time, in words / mice writhing times caused by acetic acid, in words: compared with the model group; for Inhibition ratio: writhing inhibition
Experimental: Each compound was prepared into a suspension by 0.5% sodium carboxymethylcellulose respectively, and then set according to the dose, and each administration group was administered intragastrically; the model group was administered intragastrically an equal volume of 0.5% sodium carboxymethylcellulose.
Mice were intraperitoneally injected with acetic acid to cause a large area and more lasting painful stimuli in deep enterocoelia, causing mice to produce writhing responses. After being administered for 1 h, each dose group was intraperitoneally injected with 0.7% acetic acid-normal saline solution (0.1 ml/10 g).
The time (pain latent time) that the mice started to appear writhing after being intraperitoneally injected with acetic acid was recorded.
The writhing response times of each mouse within 20 min were recorded after injecting acetic acid to cause pain, and then, the writhing inhibition ratio of each administration group was calculated.
Writhing inhibition ratio = [(writhing times of the control group -writhing times of the administration group)/writhing times of the control group] × 100%
Experimental data is shown by x±s and subjected to variance analysis by SPSS 15.0 software.

[3] = molecular target: T1, recombinant human protein MAGL (Homo sapiens, UniProt Q99685); test: MAGL enzyme analysis (Cayman MAGL inhibitor screening kit); type: biochemical; conditions: 4-nitrophenylacetic acid substrate, absorbance 410 nm, read-out: MAGLXIC50
T1 construct: purchased Cayman
T1 sequence (Q99685 1-303): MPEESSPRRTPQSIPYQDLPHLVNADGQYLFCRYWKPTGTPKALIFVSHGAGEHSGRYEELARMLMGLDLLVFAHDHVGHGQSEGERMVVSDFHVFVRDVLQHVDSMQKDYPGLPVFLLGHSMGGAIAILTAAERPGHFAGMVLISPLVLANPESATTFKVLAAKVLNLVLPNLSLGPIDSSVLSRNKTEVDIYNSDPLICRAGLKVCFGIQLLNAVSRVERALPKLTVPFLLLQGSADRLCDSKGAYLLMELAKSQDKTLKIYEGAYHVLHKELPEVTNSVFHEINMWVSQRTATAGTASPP
Experimental: 150 µL 1Xassay buffer, 10 µL recombinant human protein MAGL and 10 µL different concentrations of MAGL inhibitors (six points within 1 nM to 1000 nM) were added to per well of a 96-well plate. JZL195 (a positive control inhibitor) served as a positive control well, after incubation for 5 min at room temperature, per well was added with 10 µL MAGL substrate, and […] were vibrated for 10 s and placed for 10 min at room temperature, then an absorbance was detected at 410 nm. […] Graphad Prism 5.0 was taken to calculate IC50 curves fitting each inhibitor.

[4] = high dose 30 mg/kg ig 20 d, 20 mm Hg
[5] = high dose 30 mg/kg ig 20 d, 40 mm Hg
[6] = high dose 30 mg/kg ig 20 d, 60 mm Hg
[7] = low dose 7.5 mg/kg ig 20 d, 20 mm Hg
[8] = low dose 7.5 mg/kg ig 20 d, 40 mm Hg
[9] = low dose 7.5 mg/kg ig 20 d, 60 mm Hg
[10] = middle dose 15 mg/kg ig 20 d, 20 mm Hg
[11] = middle dose 15 mg/kg ig 20 d, 40 mm Hg
[12] = middle dose 15 mg/kg ig 20 d, 60 mm Hg

Row | Compound | Colon 5-HT ([1]; high dose 30 mg/kg ig 20 d) | Serum 5-HT ([1]; high dose 30 mg/kg ig 20 d) | AWR scoring [1, 4] | AWR scoring [1, 5] | AWR scoring [1, 6] | Colon 5-HT ([1]; low dose 7.5 mg/kg ig 20 d) | Serum 5-HT ([1]; low dose 7.5 mg/kg ig 20 d) | AWR scoring [1, 7] | AWR scoring [1, 8] | AWR scoring [1, 9] | Colon 5-HT ([1]; middle dose 15 mg/kg ig 20 d) | Serum 5-HT ([1]; middle dose 15 mg/kg ig 20 d) | AWR scoring [1, 10] | AWR scoring [1, 11] | AWR scoring [1, 12] | Writhing times ([2]; high dose 30 mg/kg ig) | Latent time ([2]; high dose 30 mg/kg ig) | Writhing times ([2]; low dose 7.5 mg/kg ig) | Latent time ([2]; low dose 7.5 mg/kg ig) [s] | Writhing times ([2]; middle dose 15 mg/kg ig) | other results
1 | O=C(Nc1ccc(Cl)cc1)C1CCN(C(=O)c2ccc(O)cc2)CC1 [MAGLZ-II-10] | 18.66±2.38^∗ µg/mg | 33.09±2.31^∗ µg/ml | 2.89±0.46 | 3.21±0.35^∗ | 3.65±0.17^∗ | 21.44 ± 2.72 µg/mg | 36.32 ± 3.14 µg/mL | 2.87±0.39 | 3.43±0.30 | 3.79±0.20 | 20.97 ± 2.24 µg/mg | 38.65 ± 2.68 µg/mL | 2.83±0.47 | 3.56±0.22 | 3.80±0.17 | 24.8±11.1^∗ | 306.4±90.2^∗ s | 34.0±9.1 | 235.4 ± 59.6 | 32.8±11.6 | Latent time ([2]; middle dose 15 mg/kg ig): 246.2 ± 69.5 s
2 | O=C(Nc1cccc(Cl)c1)C1CCN(C(=O)c2cc3cc(F)ccc3[nH]2)CC1 [MAGLZ-II-18 (a)] | 13.90 ± 1.13 µg/mg | 29.44 ± 4.37 µg/mL | 1.96±0.46** * | 2.60±0.58 | 3.00±0.54 | 16.43 ± 2.15 µg/mg | 32.51 ± 5.01 µg/mL | 2.58±0.26 | 3.06±0.38 | 3.50±0.29 | 14.64 ± 2.17 µg/mg | 30.20 ± 5.59 µg/mL | 2.35±0.40 | 3.02±0.51 | 3.39±0.34 | 17.8±11.1 | 422.4 ± 137.9 s | 24.2±8.5 | 355.5 ± 136.5 | 20.8±12.5 | 5-HT level in colon and serum, in words [1]: significantly decrease; AWR scoring, in words [1]: significantly decrease; latent time, in words [2]: extend; mice writhing times caused by acetic acid, in words [2]: significantly decrease; Inhibition ratio ([2]; high dose 30 mg/kg ig): 54.7%; Inhibition ratio ([2]; low dose 7.5 mg/kg ig): 38.4%; Latent time ([2]; middle dose 15 mg/kg ig): 380.7 ± 130.7 s; Inhibition ratio ([2]; middle dose 15 mg/kg ig): 47.1%; IC50 [3]: 2.15 µM
3 | O=C(Nc1cccc(Cl)c1)C1CCN(C(=O)c2cc(O)ccc2F)CC1 [MAGLZ-II-11 (a)] | 12.65±3.36^∗∗∗ µg/mg | 24.05±6.17^∗∗∗ µg/ml | 1.23±0.50^∗∗ ∗ | 2.13±0.48^∗∗∗ | 2.87±0.46^∗∗∗ | 16.33±2.78^∗∗ µg/mg | 31.76±5.42^∗∗ µg/ml | 2.12±0.36^∗∗ ∗ | 3.02±0.53^∗ | 3.58±0.26^∗∗ | 14.79±2.73^∗∗∗ µg/mg | 29.89±5.34^∗∗∗ µg/ml | 1.51±0.43^∗∗ ∗ | 2.52±0.38^∗∗∗ | 3.27±0.48^∗∗∗ | 12.5±9.4 | 488.8 ± 172.0 s | 22.6±12.0 | 401.2 ± 168.3 | 18.6±14.6 | 5-HT level in colon and serum, in words [1]: significantly decrease; AWR scoring, in words [1]: significantly decrease; latent time, in words [2]: extend; mice writhing times caused by acetic acid, in words [2]: significantly decrease; Inhibition ratio ([2]; high dose 30 mg/kg ig): 68.2%; Inhibition ratio ([2]; low dose 7.5 mg/kg ig): 42.5%; Latent time ([2]; middle dose 15 mg/kg ig): 438.9 ± 230.0 s; Inhibition ratio ([2]; middle dose 15 mg/kg ig): 52.7%; IC50 [3]: 2.15 µM
4 | Cn1c(C(=O)N2CCC(C(=O)Nc3cccc(Cl)c3)CC2)cc2ccccc21 [MAGLZ-II-18 (c)] | 14.34±2.40^∗∗∗ µg/mg | 29.03±5.29^∗∗∗ µg/ml | 1.38±0.51^∗∗ ∗ | 2.20±0.57^∗∗∗ | 2.96±0.70^∗∗∗ | 16.84 ± 2.87 µg/mg | 34.2 ± 5.37 µg/mL | 2.28±0.58 | 3.20±0.43 | 3.61±0.24 | 14.99±2.90^∗∗ µg/mg | 31.88±4.40^∗∗ µg/ml | 1.79±0.23^∗∗ ∗ | 2.87±0.65^∗∗ | 3.27±0.51^∗∗ | 19.9±12.2 | 373.6 ± 114.0 s | 28.3±11.9 | 263.5 ± 77.7 | 24.9±12.2 | 5-HT level in colon and serum, in words [1]: significantly decrease; AWR scoring, in words [1]: significantly decrease; latent time, in words [2]: extend; mice writhing times caused by acetic acid, in words [2]: significantly decrease; Inhibition ratio ([2]; high dose 30 mg/kg ig): 49.4%; Inhibition ratio ([2]; low dose 7.5 mg/kg ig): 28.0%; Latent time ([2]; middle dose 15 mg/kg ig): 312.7 ± 90.9 s; Inhibition ratio ([2]; middle dose 15 mg/kg ig): 36.6%; IC50 [3]: 0.0026 µM
